Data: ChEMBL document CHEMBL5724796, “Tm Shift (DSF) assay results for EUbOPEN Chemogenomics Library” (2024)
“And” between values parts separate entries of the source, which are not always exact repeats. Equal values may be shown once.

Tests used:
Peregrin (Homo sapiens) = target: T1, Peregrin (Homo sapiens) (UniProt P55201); conditions: Compound concentration 20.0 uM
T1 sequence (whole entry): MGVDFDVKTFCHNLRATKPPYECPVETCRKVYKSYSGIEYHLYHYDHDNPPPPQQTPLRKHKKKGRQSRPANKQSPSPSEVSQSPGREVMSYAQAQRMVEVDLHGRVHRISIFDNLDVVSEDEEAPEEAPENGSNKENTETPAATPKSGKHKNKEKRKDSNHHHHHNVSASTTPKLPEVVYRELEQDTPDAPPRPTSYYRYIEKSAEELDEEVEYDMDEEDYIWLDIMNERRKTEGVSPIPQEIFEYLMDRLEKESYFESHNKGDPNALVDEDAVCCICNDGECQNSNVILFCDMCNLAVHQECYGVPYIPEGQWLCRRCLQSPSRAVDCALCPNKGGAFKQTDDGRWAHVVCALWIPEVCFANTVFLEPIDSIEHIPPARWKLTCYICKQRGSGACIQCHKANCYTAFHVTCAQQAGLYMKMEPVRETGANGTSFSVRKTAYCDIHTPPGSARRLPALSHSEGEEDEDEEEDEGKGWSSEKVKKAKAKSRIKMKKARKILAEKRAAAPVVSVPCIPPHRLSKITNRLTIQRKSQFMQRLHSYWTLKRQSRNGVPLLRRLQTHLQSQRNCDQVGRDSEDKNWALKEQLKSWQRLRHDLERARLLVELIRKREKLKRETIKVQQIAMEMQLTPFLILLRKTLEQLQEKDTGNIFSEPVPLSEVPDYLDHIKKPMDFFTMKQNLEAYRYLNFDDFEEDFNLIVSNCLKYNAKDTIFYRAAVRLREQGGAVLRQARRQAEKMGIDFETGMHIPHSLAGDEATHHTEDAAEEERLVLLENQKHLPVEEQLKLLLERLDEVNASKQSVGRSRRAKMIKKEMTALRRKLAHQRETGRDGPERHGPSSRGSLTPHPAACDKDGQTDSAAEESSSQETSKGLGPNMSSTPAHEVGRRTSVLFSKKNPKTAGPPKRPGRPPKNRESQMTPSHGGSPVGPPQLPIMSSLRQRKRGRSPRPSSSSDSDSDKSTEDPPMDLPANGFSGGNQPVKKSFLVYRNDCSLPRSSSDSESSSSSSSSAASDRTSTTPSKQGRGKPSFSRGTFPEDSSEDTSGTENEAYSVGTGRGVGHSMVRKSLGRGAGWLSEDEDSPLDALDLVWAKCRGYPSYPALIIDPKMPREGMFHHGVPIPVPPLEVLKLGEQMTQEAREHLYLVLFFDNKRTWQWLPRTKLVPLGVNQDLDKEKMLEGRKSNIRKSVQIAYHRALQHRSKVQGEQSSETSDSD

[1] = target: Fibroblast growth factor receptor 2 (Homo sapiens) (UniProt P21802); conditions: Compound concentration 20.0 uM
Fibroblast growth factor receptor 2 (Homo sapiens), sequence (P21802 22-821 limits assumed): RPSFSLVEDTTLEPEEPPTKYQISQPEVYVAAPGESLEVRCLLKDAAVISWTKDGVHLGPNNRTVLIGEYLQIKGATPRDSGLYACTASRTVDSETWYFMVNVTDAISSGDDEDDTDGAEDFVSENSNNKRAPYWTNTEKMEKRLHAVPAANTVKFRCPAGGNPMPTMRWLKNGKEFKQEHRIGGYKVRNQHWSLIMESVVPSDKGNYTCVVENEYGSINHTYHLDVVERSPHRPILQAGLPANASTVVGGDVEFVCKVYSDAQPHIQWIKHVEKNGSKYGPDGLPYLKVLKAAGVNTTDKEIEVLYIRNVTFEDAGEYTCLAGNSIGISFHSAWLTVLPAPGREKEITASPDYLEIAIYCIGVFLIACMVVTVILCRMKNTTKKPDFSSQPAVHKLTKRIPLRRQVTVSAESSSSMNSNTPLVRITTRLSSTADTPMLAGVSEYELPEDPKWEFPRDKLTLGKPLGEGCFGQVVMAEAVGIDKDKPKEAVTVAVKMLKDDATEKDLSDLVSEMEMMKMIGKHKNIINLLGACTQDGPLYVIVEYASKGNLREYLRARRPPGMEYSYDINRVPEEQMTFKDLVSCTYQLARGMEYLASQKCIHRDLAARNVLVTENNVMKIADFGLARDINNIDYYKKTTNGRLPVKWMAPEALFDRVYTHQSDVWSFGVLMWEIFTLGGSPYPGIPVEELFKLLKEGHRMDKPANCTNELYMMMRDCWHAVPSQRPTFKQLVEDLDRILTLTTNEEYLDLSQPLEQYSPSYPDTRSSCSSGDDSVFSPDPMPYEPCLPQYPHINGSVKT
Description: Thermal Shift Assay. Domain: start/stop: T457-E768

SMILES | ΔTm (Peregrin (Homo sapiens)) | ΔTm [1] | ΔTm (Peregrin (Homo sapiens); Protein concentration 2.0 uM)
Cn1c(OC[C@H]2CC[C@H](C(F)(F)F)CC2)nn2c(C3CCOCC3)ncc2c1=O | 2.25 °C | -0.94 °C | –
C[C@@H]1CN(Cc2ncccn2)C[C@H]1c1nc2c(cnn2C2CCOCC2)c(=O)[nH]1 | 0.83 °C | 0.17 °C | –
Cc1sc2c(c1C)C(c1ccc(Cl)cc1)=N[C@@H](CC(=O)OC(C)(C)C)c1nnc(C)n1-2 | -1.61 °C | 0.6 °C | –
CC(C)c1cnc(CSc2cnc(NC(=O)C3CCNCC3)s2)o1 | -1.67 °C | 0.73 °C | –
CCNC(=O)c1noc(-c2cc(C(C)C)c(O)cc2O)c1-c1ccc(CN2CCOCC2)cc1 | -1.1 °C | 0.62 °C | –
COc1cc2c(NC3CCN(CC4CCCCC4)CC3)nc(N3CCCN(C(C)C)CC3)nc2cc1OCCCN1CCCCC1 | -0.98 °C | 0.65 °C | –
CC(C)c1ccc(C(=O)N=C(N)N)cc1S(C)(=O)=O | -0.14 °C | -0.34 °C | –
CCO/N=C1\c2ccccc2-c2nc(C#N)c(C#N)nc21 | 2.55 °C and 0.36 °C | 0.21 °C and 0.32 °C | –
CS(=O)(=O)c1ccc(Oc2cc(F)cc(C#N)c2)c2c1[C@H](O)C(F)(F)C2 | 1.71 °C | -0.21 °C | –
Nc1c[nH]c(=O)c2cc(-c3ccccc3)sc12 | -1.11 °C | 0.44 °C | –
O=C(c1cc(Cl)c(O)c(Cl)c1)N1CS(=O)(=O)c2ccccc21 | 1.35 °C | 0.39 °C | –
CCCCCCCCCCCCC/C=C/[C@@H](O)[C@H](CO)NC(=O)CBr | -2.74 °C | -18.9 °C | –
O=C(NCCCCc1ccccc1)n1c(=O)oc2cc(-c3ccc(F)cc3)ccc21 | 2.4 °C | -0.32 °C | –
Cc1ccc2[nH]c3c(c2c1)CCCC3C(N)=O (centres undefined) | 0.79 °C | 0.03 °C | –
CNc1cc(-c2cccc(Cl)c2Cl)nc(N)n1 | 0.7 °C | -0.72 °C | –
Cn1cc(-c2ccncc2)c(-c2ccc(OCc3ccc4ccccc4n3)cc2)n1 | 0.25 °C | 0.48 °C | –
CS(=O)(=O)c1ccc(-c2nnc(C=Cc3nnc(-c4ccc(C#N)cc4)o3)n2-c2ccccc2Cl)nc1 | – | 0.13 °C | 2 °C
CC(=O)N[C@@H](Cc1ccc(O)cc1)C(=O)N[C@H](C(=O)N[C@@H](C)C(=O)N[C@H](C=O)CC(=O)O)C(C)C | -1.25 °C | 0.54 °C | –
CNCc1ccc(-c2[nH]c3cc(F)cc4c3c2CCNC4=O)cc1 | 3.14 °C | -0.11 °C | –
OC1CN=C2c3ccn([C@@H]4O[C@H]([C@H](O)c5ccc(Cl)cc5)[C@@H](O)[C@H]4O)c3N=CN21 (some centres undefined) | -0.74 °C | 0.52 °C | –
COc1ccc(C(=O)N[C@H](C(=O)N2CCC[C@H]2C(=O)N[C@H](C(=O)C(F)(F)F)C(C)C)C(C)C)cc1 | 0.8 °C | 0.07 °C | –
Cc1ccc([N+](=O)[O-])cc1S(=O)(=O)N(C)C | 2.57 °C | -0.67 °C | –
O=c1[nH][nH]c(=O)c2cc(OCc3ccccc3F)ccc12 | 2.62 °C | 0.22 °C | –
CC(C)Cc1nn(C)c(=O)c2c(SCCCO)n(Cc3cccc4ccccc34)cc12 | -2.75 °C and -3.63 °C | 0.03 °C and -0.58 °C | –
CCS(=O)(=O)N1CC(CC#N)(n2cc(-c3ncnc4[nH]ccc34)cn2)C1 | -1.09 °C | 1.48 °C | –
CCN(c1cc(-c2ccc(CN3CCOCC3)cc2)cc(C(=O)NCc2c(C)cc(C)[nH]c2=O)c1C)C1CCOCC1 | -1.14 °C | 0.66 °C | –
O=C(CNC(=O)[C@H](COP(=O)(O)O)NC(=O)CCc1c[nH]c2ccccc12)NCCCCc1ccccc1 | 2.14 °C | 0.74 °C | –
